Assay results published in paper PMC7867265, “Phosphofructokinases A and B from Mycobacterium tuberculosis Display Different Catalytic Properties and Allosteric Regulation” (International Journal of Molecular Sciences, 2021).

Columns and labels:
Pfk A [1] = biological target: T1, Pfk A (Mycobacterium tuberculosis, UniProt P9WID7)
T1 construct: gene pfkA

Pfk A [2] = biological target: T1, Pfk A; remark: listed apart in the source
Pfk B = biological target: T2, Pfk B (Mycobacterium tuberculosis, UniProt P9WID3)
T2 construct: gene pfkB
T2 sequence (P9WID3 whole entry): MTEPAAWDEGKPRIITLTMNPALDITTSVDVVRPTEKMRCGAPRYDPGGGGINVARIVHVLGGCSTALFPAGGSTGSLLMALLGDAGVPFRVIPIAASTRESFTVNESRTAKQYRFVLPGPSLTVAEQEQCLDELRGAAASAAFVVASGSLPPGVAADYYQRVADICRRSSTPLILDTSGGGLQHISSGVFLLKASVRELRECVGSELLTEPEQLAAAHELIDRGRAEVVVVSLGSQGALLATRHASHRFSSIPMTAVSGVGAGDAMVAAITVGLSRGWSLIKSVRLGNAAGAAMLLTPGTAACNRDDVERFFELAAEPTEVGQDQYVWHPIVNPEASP

Pfk A [3] = biological target: T1, Pfk A; remark: listed apart in the source
Pfk A [4] = biological target: T1, Pfk A; remark: listed apart in the source

T1 sequence (P9WID7 whole entry): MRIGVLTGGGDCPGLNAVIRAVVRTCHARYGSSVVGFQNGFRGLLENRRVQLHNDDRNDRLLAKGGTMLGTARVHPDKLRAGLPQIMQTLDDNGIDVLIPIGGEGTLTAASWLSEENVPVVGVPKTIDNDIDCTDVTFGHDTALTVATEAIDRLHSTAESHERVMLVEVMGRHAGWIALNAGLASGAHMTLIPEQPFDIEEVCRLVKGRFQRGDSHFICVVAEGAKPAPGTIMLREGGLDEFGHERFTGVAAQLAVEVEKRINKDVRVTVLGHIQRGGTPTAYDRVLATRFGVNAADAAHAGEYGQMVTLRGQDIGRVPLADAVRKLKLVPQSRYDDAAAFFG

With `Nc1ncnc2c1ncn2[C@@H]1O[C@H](COP(=O)(O)OP(=O)(O)OP(=O)(O)O)[C@@H](O)[C@H]1O` [ATP] the “K1/2 (Km)” value (Pfk A [1]) was 1.5 ± 0.3 mM.

With `O=P(O)(O)OC[C@H]1OC(O)(CO)[C@@H](O)[C@@H]1O` (some centres unmarked) [F6P] the “K1/2 (Km)” value (Pfk A [1]) was 13.2 ± 2.0 mM.

`O=P(O)(O)OC[C@H]1OC(O)(COP(=O)(O)O)[C@@H](O)[C@@H]1O` (some centres unmarked) [F16bP] was tested, and the “feedback inhibition, modified coupled assay II” value (Pfk A [2]) was “Pfk A was efficiently inhibited by F16bP within the low micromolar concentration range”.

With `O=P(O)(O)OC[C@H]1O[C@@](CO)(OP(=O)(O)O)[C@@H](O)[C@@H]1O` [F26bP] the “% activation at 100 μM” value (Pfk B) was 20% and the “% activation at 100 μM” value (Pfk A [3]) was 10%.

With `Nc1nc2c(ncn2[C@@H]2O[C@H](COP(=O)(O)OP(=O)(O)O)[C@@H](O)[C@H]2O)c(=O)[nH]1` [GDP] the “inhibition, coupled assay I” value (Pfk A [4]) was “Pfk A was found to be efficiently inhibited also by GDP within the millimolar concentration range”.

In the case of `C=C(OP(=O)(O)O)C(=O)O` [PEP], the “inhibition, coupled assay I” value (Pfk A [4]) is reported as “efficient Pfk A inhibition can be achieved by a low micromolar concentration of this metabolite”.

For `O=C(O)CC(O)(CC(=O)O)C(=O)O` [citrate], the “inhibition, coupled assay I” value (Pfk A [4]) was “Citrate also inhibited Pfk A, however, in millimolar concentrations”.
